From patent US20070128217A1 (priority 2003, published 2007)

Assays:
[1] = tested on: antibodies in sera from SARS patients (sera 1a, 1b, 2, 6, 37, 62, London, SARS-yellow, SARS-green); format: binding, human; parameters: Binding of serum 6 to linear peptides of protein X1 of SARS-CoV Urbani / Binding of serum 37 to linear peptides of protein X1 of SARS-CoV Urbani / Binding of serum 6 to looped/cyclic peptide (PEPSCAN-ELISA) / Binding of serum 37 to looped/cyclic peptide (PEPSCAN-ELISA) / Binding of serum 37 to looped/cyclic peptides of protein X1 of SARS-CoV Urbani / Binding of serum 6 to linear peptides of protein X2 / Binding of serum 37 to linear peptides of protein X2 / Binding of serum 37 to looped/cyclic peptides of protein X2 of SARS-CoV Urbani / Binding of serum 6 to linear peptides of protein M of SARS-CoV Urbani / Binding of serum 37 to linear peptides of protein M of SARS-CoV Urbani / Binding of serum 6 to looped/cyclic peptides of protein M of SARS-CoV Urbani / Binding of serum 37 to looped/cyclic peptides of protein M of SARS-CoV Urbani / Binding of serum 6 to linear peptides of protein X3 of SARS-CoV Urbani / Binding of serum 37 to linear peptides of protein X3 of SARS-CoV Urbani / Binding of serum 37 to looped/cyclic peptides of protein X3 of SARS-CoV Urbani / Binding of serum 6 to linear peptides of protein X4 of SARS-CoV Urbani / Binding of serum 37 to linear peptides of protein X4 of SARS-CoV Urbani / Binding of serum 37 to looped/cyclic peptides of protein X4 of SARS-CoV Urbani / Binding of serum 6 to linear peptides of protein X5 of SARS-CoV Urbani / Binding of serum 37 to linear peptides of protein X5 of SARS-CoV Urbani / Binding of serum 37 to looped/cyclic peptides of protein X5 of SARS-CoV Urbani / Binding of serum 6 to linear peptides of protein N of SARS-CoV Urbani / Binding of serum 37 to linear peptides of protein N of SARS-CoV Urbani / Binding of serum 6 to linear peptide (PEPSCAN-ELISA) / Binding of serum 1a to looped/cyclic peptides of protein N of SARS-CoV Urbani / Binding of serum 1b to looped/cyclic peptides of protein N of SARS-CoV Urbani / Binding of serum 2 to looped/cyclic peptides of protein N of SARS-CoV Urbani / Binding of serum 6 to looped/cyclic peptides of protein N of SARS-CoV Urbani / Binding of serum 37 to looped/cyclic peptides of protein N of SARS-CoV Urbani / Binding of serum 62 to looped/cyclic peptides of protein N of SARS-CoV Urbani / Binding of serum London to looped/cyclic peptides of protein N of SARS-CoV Urbani / Binding of serum SARS-green to looped/cyclic peptides of protein N of SARS-CoV Urbani: unit not given here
[2] = tested on: control sera (pooled serum of ten healthy LUMC hospital workers; commercial negative donor pooled serum from the Dutch bloodbank); format: binding, human; parameters: Binding of Control serum LUMC to linear peptides / Binding of Control serum Blood-bank to linear peptides / Binding of Control serum LUMC to looped peptides / Binding of Control Serum Blood-Bank to Looped peptides / Binding of Control serum LUMC to linear peptides of the protein M of SARS-CoV Urbani / Binding of Control serum Blood-bank to linear peptides of the protein M of SARS-CoV Urbani / Binding of Control serum LUMC to looped peptides of the protein M of SARS-CoV Urbani / Binding of Control Serum Blood-Bank to Looped peptides of the protein M of SARS-CoV Urbani: unit not given here
[3] = tested on: rabbit serum obtained by immunizing a rabbit with the SARS-CoV strain Frankfurt 1; format: binding; parameters: Binding of a rabbit serum to linear peptides / Binding of a rabbit serum to looped peptides / Rabbit serum linear peptides / Rabbit serum looped peptides / Binding of a rabbit serum to linear peptides of protein N of SARS-CoV Urbani (Rabbit serum linear peptides) / Binding of a rabbit serum to looped/cyclic peptides of protein N of SARS-CoV Urbani (Rabbit serum looped peptides): unit not given here
[4] = tested on: recombinant human anti-SARS-CoV antibody 03-018; format: binding; parameters: Binding of antibody 03-018 to linear peptides of the N protein of SARS-CoV Urbani / Binding of antibody 03-018 to looped/cyclic peptides of the N protein of SARS-CoV Urbani: unit not given here

Row | Sequence | Binding of serum 1a to looped/cyclic peptides of protein N of SARS-CoV Urbani [1] | Binding of serum 1b to looped/cyclic peptides of protein N of SARS-CoV Urbani [1] | Binding of serum 2 to looped/cyclic peptides of protein N of SARS-CoV Urbani [1] | Binding of serum 6 to looped/cyclic peptides of protein N of SARS-CoV Urbani [1] | Binding of serum 37 to looped/cyclic peptides of protein N of SARS-CoV Urbani [1] | Binding of serum 62 to looped/cyclic peptides of protein N of SARS-CoV Urbani [1] | Binding of serum London to looped/cyclic peptides of protein N of SARS-CoV Urbani [1] | Binding of serum SARS-green to looped/cyclic peptides of protein N of SARS-CoV Urbani [1] | Binding of serum SARS-yellow to looped/cyclic peptides of protein N of SARS-CoV Urbani [1] | Binding of Control Serum Blood-Bank to Looped peptides [2] | Binding of Control serum Blood-bank to linear peptides [2] | Binding of Control serum LUMC to linear peptides [2] | Binding of Control serum LUMC to looped peptides [2] | Binding of a rabbit serum to linear peptides of protein N of SARS-CoV Urbani (Rabbit serum linear peptides) [3] | Binding of a rabbit serum to looped/cyclic peptides of protein N of SARS-CoV Urbani (Rabbit serum looped peptides) [3] | Binding of antibody 03-018 to linear peptides of the N protein of SARS-CoV Urbani [4] | Binding of antibody 03-018 to looped/cyclic peptides of the N protein of SARS-CoV Urbani [4] | Binding of serum 1a to linear peptides of protein N of SARS-CoV Urbani [1] | Binding of serum 1b to linear peptides of protein N of SARS-CoV Urbani [1] | Binding of serum 2 to linear peptides of protein N of SARS-CoV Urbani [1] | further results
1 | FGRRGPEQTQGNFGD | 0.3 | 0.1 | 0.2 | 0.1 | 0.4 | 0.1 | 0.2 | 0.2 | 0.2 | 0.4 | 0.7 | 0.6 | 0.3 | 0.2 | 0.0 | 0.1 | 0.1 |  |  |  | Recognition of the peptide by sera of SARS-CoV infected individuals, and form (linear, looped/cyclic) in which it is recognized [1]: recognized in linear form
2 | KKKKTDEAQPLPQRQ | 0.2 | 0.1 | 0.3 | 0.1 | 0.4 | 0.3 | 0.3 | 0.1 | 0.2 |  |  |  |  | 0.2 | 0.1 | 0.1 | 0.2 | 0.3 | 0.1 | 0.3 | Binding of serum 6 to linear peptides of protein N of SARS-CoV Urbani [1]: 0.3; Binding of serum 37 to linear peptides of protein N of SARS-CoV Urbani [1]: 0.7; Binding of serum 62 to linear peptides of protein N of SARS-CoV Urbani [1]: 0.7; Binding of serum London to linear peptides of protein N of SARS-CoV Urbani [1]: 0.8; Binding of serum SARS-green to linear peptides of protein N of SARS-CoV Urbani [1]: 0.6; Binding of serum SARS-yellow to linear peptides of protein N of SARS-CoV Urbani [1]: 0.9; Control Serum Blood-Bank Looped peptides [2]: 0.6; Control serum Blood-bank linear peptides [2]: 1.0; Control serum LUMC linear peptides [2]: 0.9; Control serum LUMC looped peptides [2]: 0.4
3 | KKSAAEASKKPRQKR | 0.2 | 0.1 | 0.3 | 0.2 | 0.5 | 0.3 | 0.4 | 0.2 | 0.3 | 0.5 | 1.0 | 1.0 | 0.5 | 0.4 | 0.8 | 0.1 | 0.2 |  |  |  | Recognition of the peptide by sera of SARS-CoV infected individuals, and form (linear, looped/cyclic) in which it is recognized [1]: recognized in linear form
4 | PTEPKKDKKKKTDEA | 0.2 | 0.1 | 0.3 | 0.1 | 0.3 | 0.3 | 0.3 | 0.0 | 0.2 |  |  |  |  | 0.1 | 0.2 | 0.1 | 0.2 | 0.2 | 0.1 | 2.0 | Binding of serum 6 to linear peptides of protein N of SARS-CoV Urbani [1]: 0.2; Binding of serum 37 to linear peptides of protein N of SARS-CoV Urbani [1]: 0.6; Binding of serum 62 to linear peptides of protein N of SARS-CoV Urbani [1]: 0.7; Binding of serum London to linear peptides of protein N of SARS-CoV Urbani [1]: 0.5; Binding of serum SARS-green to linear peptides of protein N of SARS-CoV Urbani [1]: 0.2; Binding of serum SARS-yellow to linear peptides of protein N of SARS-CoV Urbani [1]: 0.5; Control Serum Blood-Bank Looped peptides [2]: 0.4; Control serum Blood-bank linear peptides [2]: 0.6; Control serum LUMC linear peptides [2]: 0.6; Control serum LUMC looped peptides [2]: 0.3
5 | DSTDNNQNGGRNGAR | 0.4 | 0.3 | 0.5 | 0.3 | 0.7 | 0.4 | 0.5 | 0.8 | 0.5 | 0.6 | 0.8 | 0.7 | 0.7 | 0.1 | 0.5 | 0.2 | 0.3 | 0.2 | 0.1 | 0.2 | Binding of serum 6 to linear peptides of protein N of SARS-CoV Urbani [1]: 0.2; Binding of serum 37 to linear peptides of protein N of SARS-CoV Urbani [1]: 1.0; Binding of serum 62 to linear peptides of protein N of SARS-CoV Urbani [1]: 0.8; Binding of serum London to linear peptides of protein N of SARS-CoV Urbani [1]: 0.5; Binding of serum SARS-green to linear peptides of protein N of SARS-CoV Urbani [1]: 0.5; Binding of serum SARS-yellow to linear peptides of protein N of SARS-CoV Urbani [1]: 0.5
